This passage reports inhibition, microsomal CLint and Ki results from patent US8592403B2, “Diazepine and diazocane compounds as MC4 agonists” (Pfizer Limited, priority 2008, dated 2013).

In one data set the target is T1, CYP3A4 (Homo sapiens, UniProt P08684).
T1 construct: utilizes human liver microsomes together with isoform-specific clinical drug probes; from tissue; host or cells: human liver microsomes
The data set can be described thus: High density DDI 3 μM cocktail screen in human liver microsomes, midazolam probe. It counts as in vitro ADME. The settings on record: human, liver microsomes, probe midazolam, read-out: % inhibition 3A4 @ 3 μM. Put shortly: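 Pooled human liver microsomes incubated with isoform-specific clinical probe substrates as a cocktail (midazolam for CYP3A4), with or without test compound at 3 μM. Metabolite formation followed over time by LC-MS/MS. Inhibition expressed as a single-point percentage.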

Data set [1] can be described thus: In vitro metabolism rate determination, human liver microsome (HLM) assay. Conditions: human, liver microsomes, read-out: HLM: Clint, app. The data set is classed as in vitro ADME. In a few lines:
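Human liver microsomes at 0.5 nmol cytochrome P450/ml with 1 μM substrate, pre-warmed 5 min at 37° C, reaction started with NADP; samples taken 0–60 min and terminated. Substrate loss measured; first-order rate constant from log-linear regression converted to half-life or Clint (μl/min/mg protein).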

The target in the next data set is T2, MC3 receptor (MC3R) (Homo sapiens, UniProt P41968).
T2 construct: expressed in transfected cells; host or cells: CHO-CRE MC3R cells (membranes)
Description: Nle4, D-Phe7-α-MSH inhibition at the MC3 receptor (competition binding, SPA, CHO-CRE MC3R membranes). Put shortly: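 Competition binding by SPA used CHO-CRE MC3R membranes on WGA beads with 0.06 nM [125I]Nle4,D-Phe7-α-MSH and 11 half-log competitor concentrations. Buffer was 25 mM HEPES, MgCl2, CaCl2, 1% Pluronic F68, pH7, incubated 12 h at room temperature. Non-specific binding was defined with 100 nM SHU9119, and Ki values were derived.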

T1 sequence (P08684 whole entry, canonical isoform): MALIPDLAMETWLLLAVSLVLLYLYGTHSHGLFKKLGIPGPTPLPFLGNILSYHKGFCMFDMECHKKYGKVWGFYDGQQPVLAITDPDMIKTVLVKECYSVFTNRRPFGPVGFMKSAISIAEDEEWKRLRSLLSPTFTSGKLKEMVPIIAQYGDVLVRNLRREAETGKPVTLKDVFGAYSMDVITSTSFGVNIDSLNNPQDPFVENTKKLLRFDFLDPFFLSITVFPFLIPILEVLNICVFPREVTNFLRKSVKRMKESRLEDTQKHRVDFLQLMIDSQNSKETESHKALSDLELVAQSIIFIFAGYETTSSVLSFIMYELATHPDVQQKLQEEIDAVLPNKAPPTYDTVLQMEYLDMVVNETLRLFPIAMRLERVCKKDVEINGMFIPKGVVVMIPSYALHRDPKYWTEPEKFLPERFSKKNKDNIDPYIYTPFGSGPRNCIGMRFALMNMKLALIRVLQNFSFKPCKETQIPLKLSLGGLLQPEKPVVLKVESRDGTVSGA
T2 sequence (P41968 whole entry): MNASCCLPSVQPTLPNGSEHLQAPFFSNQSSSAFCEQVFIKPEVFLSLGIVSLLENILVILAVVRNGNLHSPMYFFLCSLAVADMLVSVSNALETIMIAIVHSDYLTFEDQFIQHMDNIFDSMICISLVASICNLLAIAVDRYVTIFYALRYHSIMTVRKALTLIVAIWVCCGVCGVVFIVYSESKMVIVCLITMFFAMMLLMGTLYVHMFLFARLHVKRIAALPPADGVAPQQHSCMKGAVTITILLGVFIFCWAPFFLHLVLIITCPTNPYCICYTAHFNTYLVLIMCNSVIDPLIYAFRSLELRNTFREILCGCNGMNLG

On to `CNC(=O)N1CCN(C(=O)[C@@H]2CN(c3cccnn3)C[C@H]2c2ccc(F)cc2F)CCCC1c1ccccc1` (mixture of isomers) [Example 73], for which, at CYP3A4, the inhibition at 3 µM worked out at 88%. Moreover, in data set [1], the microsomal CLint at 1 μM came out at 53 µL/min/mg. Besides, the Ki at MC3 receptor (MC3R) turned out to be 981 nM.
Consider `CS(=O)(=O)N1CCN(C(=O)[C@@H]2CN(c3ccc(C#N)nn3)C[C@H]2c2ccc(F)cc2F)CCCC1c1ccc(Cl)cc1` (mixture of isomers) [Example 76], for which the inhibition at 3 µM at CYP3A4 stood at 33.5%. In addition, the microsomal CLint at 1 μM in data set [1] was found to be 11 µL/min/mg. Further, on MC3 receptor (MC3R), the inhibitory constant (Ki) was determined as 960 nM.
The corresponding values for `CS(=O)(=O)N1CCN(C(=O)[C@@H]2CN(c3ccc(=O)[nH]n3)C[C@H]2c2ccc(F)cc2F)CCCC1c1ccc(Cl)cc1` (mixture of isomers) [Example 79] are 51%, 22 µL/min/mg and 1110 nM.
For `CCCC(=O)N1CCN(C(=O)[C@@H]2CN(c3cccnn3)C[C@H]2c2ccc(F)cc2F)CCCC1c1ccccc1` (mixture of isomers) [Example 101] the same measures were 83%, 143 µL/min/mg and 715 nM.
The corresponding values for `CC(=O)N1CCN(C(=O)[C@@H]2CN(c3cccnn3)C[C@H]2c2ccc(F)cc2F)CCCC1c1ccccc1` (mixture of isomers) [Example 103] are 53.8%, 102 µL/min/mg and 1540 nM.
Turning to `COc1ccc([C@@H]2CN(c3ccc(=O)n(C)n3)C[C@H]2C(=O)N2CCCC(c3ccc(Cl)cc3)N(S(C)(=O)=O)CC2)c(F)c1` (single isomer, unassigned) [Example 117], at CYP3A4, the inhibition at 3 µM is 44.5%. Also, the microsomal CLint at 1 μM in data set [1] worked out at 35.1 µL/min/mg. Besides, affinity at MC3 receptor (MC3R) was put at a Ki of 1150 nM.
For `CC(=O)N1CCN(C(=O)[C@@H]2CN(c3ccc4nncn4n3)C[C@H]2c2ccc(Cl)cn2)CCC[C@H]1c1ccc(Cl)cc1` [Example 6, 6-[(3S,4S)-3-{[4-acetyl-5S-(4-chlorophenyl)-1,4-diazocan-1-yl]carbonyl}-4-(5-chloropyridin-2-yl)pyrrolidin-1-yl][1,2,4]triazolo[4,3-b]pyridazine] the same measures were 54.2%, 13.5 µL/min/mg and 89.5 nM.
For `CCC(=O)N1CCN(C(=O)[C@@H]2CN(C(C)(C)C)C[C@H]2c2ccc(F)cc2F)CCC[C@H]1c1ccc(Cl)cc1` [Example 10] the same measures were 37.1%, 22.1 µL/min/mg and 6590 nM.
The corresponding values for `CC(C)C(=O)N1CCN(C(=O)[C@@H]2CN(C(C)(C)C)C[C@H]2c2ccc(F)cc2F)CCC[C@H]1c1ccc(Cl)cc1` [Example 11] are 53.5%, 23.6 µL/min/mg and 4090 nM.
With `CC(C)(C)N1C[C@@H](C(=O)N2CCC[C@@H](c3ccc(Cl)cc3)N(C(=O)C3CCC3)CC2)[C@H](c2ccc(F)cc2F)C1` [Example 14], at CYP3A4, the inhibition at 3 µM turned out to be 56.1%. Moreover, in data set [1], the microsomal CLint at 1 μM is 82.8 µL/min/mg. Besides, on MC3 receptor (MC3R), the inhibition constant (Ki) is 4060 nM.
Consider `CC(C)(C)C(=O)N1CCN(C(=O)[C@@H]2CN(C(C)(C)C)C[C@H]2c2ccc(F)cc2F)CCC[C@H]1c1ccc(Cl)cc1` [Example 15], for which, at CYP3A4, the inhibition at 3 µM turned out to be 64.4%. Moreover, the microsomal CLint at 1 μM in data set [1] amounted to 57.4 µL/min/mg. At MC3 receptor (MC3R), this compound showed an inhibition constant Ki of 3380 nM.
The corresponding values for `CC(C)C(=O)N1CCN(C(=O)[C@@H]2CN(C(C)(C)C)C[C@H]2c2ccc(Cl)cn2)CCC[C@H]1c1ccc(Cl)cc1` [Example 20, 1-{[(3S,4S)-1-tert-butyl-4-(5-chloropyridin-2-yl)pyrrolidin-3-yl]carbonyl}-5S-(4-chlorophenyl)-4-isobutyryl-1,4-diazocane] are 50.2%, 18.1 µL/min/mg and 386 nM.
Regarding `COC(=O)N1CCN(C(=O)[C@@H]2CN(c3ccc(=O)n(C)n3)C[C@H]2c2ccc(F)cc2F)CCC[C@@H]1c1ccc(Cl)cc1` [Example 56], the inhibition at 3 µM at CYP3A4 came to 54.2%. Moreover, the microsomal CLint at 1 μM in data set [1] was 20.5 µL/min/mg. In addition, the Ki at MC3 receptor (MC3R) worked out at 187 nM.
For `COC(=O)N1CCN(C(=O)[C@@H]2CN(c3ccc(=O)n(C)n3)C[C@H]2c2ccc(F)cc2F)CCC[C@H]1c1ccc(Cl)cc1` [Example 66, methyl (8S-4-chlorophenyl)-4-{[(3S,4R)-4-(2,4-difluorophenyl)-1-(1-methyl-6-oxo-1,6-dihydropyridazin-3-yl)pyrrolidin-3-yl]carbonyl}-1,4-diazocane-1-carboxylate] the same measures were 54.2%, 20.5 µL/min/mg and 187 nM.
For `COc1ccc([C@@H]2CN(c3ccc(C#N)nn3)C[C@H]2C(=O)N2CCC[C@@H](c3ccc(Cl)cc3)N(C(C)=O)CC2)c(F)c1` [Example 67] the same measures were 29.5%, 21.4 µL/min/mg and 162 nM.
The corresponding values for `COc1ccc([C@@H]2CN(c3ccc(=O)[nH]n3)C[C@H]2C(=O)N2CCC[C@@H](c3ccc(Cl)cc3)N(C(C)=O)CC2)c(F)c1` [Example 68, 6-[(3S,4R)-3-{[4-acetyl-5S-(4-chlorophenyl)-1,4-diazocan-1-yl]carbonyl}-4-(2-fluoro-4-methoxyphenyl)pyrrolidin-1-yl]pyridazin-3(2H)-one] are 29.5%, 13.7 µL/min/mg and 308 nM.
Turning to `COc1ccc([C@@H]2CN(C(C)(C)C)C[C@H]2C(=O)N2CCC[C@@H](c3ccc(Cl)cc3)N(C(C)=O)CC2)c(F)c1` [Example 70], the inhibition at 3 µM on CYP3A4 was determined as 36%. In addition, in data set [1], the microsomal CLint at 1 μM is 28.3 µL/min/mg. In addition, the affinity on MC3 receptor (MC3R), expressed as Ki, was 5880 nM.
For `CC(=O)N1CCN(C(=O)[C@@H]2CN(c3ccc(C#N)nn3)C[C@H]2c2ccc(Cl)cn2)CCC[C@H]1c1ccc(Cl)cc1` [Example 72] the same measures were 20.4%, 13 µL/min/mg and 141 nM.
For `CS(=O)(=O)N1CCN(C(=O)C2CN(c3ccc(=O)[nH]n3)CC2c2ccc(F)cc2F)CCCC1c1ccc(F)cc1` (stereo not drawn) [Example 78] the same measures were 49%, 54 µL/min/mg and 3220 nM.
Regarding `COC(=O)N1CCN(C(=O)[C@@H]2CN(c3ccc(=O)[nH]n3)C[C@H]2c2ccc(OC)cc2F)CCC[C@@H]1c1ccc(Cl)cc1` [Example 90, methyl 8R-(4-chlorophenyl)-4-{[(3S,4R)-4-(2-fluoro-4-methoxyphenyl)-1-(6-oxo-1,6-dihydropyridazin-3-yl)pyrrolidin-3-yl]carbonyl}-1,4-diazocane-1-carboxylate], the inhibition at 3 µM on CYP3A4 is 53.8%. Moreover, in data set [1], the microsomal CLint at 1 μM stood at 11.7 µL/min/mg. The compound also had a Ki at MC3 receptor (MC3R) of 230 nM.
For `COC(=O)N1CCN(C(=O)[C@@H]2CN(C(C)(C)C)C[C@H]2c2ccc(OC)cc2F)CCCC1c1ccc(Cl)cc1` (stereo partly drawn) [Example 91] the same measures were 33%, 46.9 µL/min/mg and 4300 nM.
For `COC(=O)N1CCN(C(=O)[C@@H]2CN(c3ccc(=O)n(C)n3)C[C@H]2c2ccc(OC)cc2F)CCC[C@H]1c1ccc(Cl)cc1` [Example 118] the same measures were 48%, 23.2 µL/min/mg and 178 nM.
For `COC(=O)N1CCN(C(=O)[C@@H]2CN(c3ccc(=O)n(C)n3)C[C@H]2c2ccc(OC)cc2F)CCC[C@@H]1c1ccc(Cl)cc1` [Example 119, methyl 8R-(4-chlorophenyl)-4-{[(3S,4R)-4-(2-fluoro-4-methoxyphenyl)-1-(1-methyl-6-oxo-1,6-dihydropyridazin-3-yl)pyrrolidin-3-yl]carbonyl}-1,4-diazocane-1-carboxylate], on CYP3A4, the inhibition at 3 µM came to 54.5%. The microsomal CLint at 1 μM in data set [1] came to 18.8 µL/min/mg. The Ki at MC3 receptor (MC3R) was 900 nM.
